This is an account of results in patent US20260232578A1, “COMPOSITIONS AND METHODS FOR TRANSMUCOSAL ABSORPTION” (Tonix Pharma Limited, priority 2012, published 2026).

pKi: −log10 of the molar value. Counter-ions that a name gives are not always drawn.

In one series the target is T1, 5-HT1A receptor (Homo sapiens, UniProt P08908).
T1 construct: expressed in transfected cells
T1 sequence (P08908 1-422): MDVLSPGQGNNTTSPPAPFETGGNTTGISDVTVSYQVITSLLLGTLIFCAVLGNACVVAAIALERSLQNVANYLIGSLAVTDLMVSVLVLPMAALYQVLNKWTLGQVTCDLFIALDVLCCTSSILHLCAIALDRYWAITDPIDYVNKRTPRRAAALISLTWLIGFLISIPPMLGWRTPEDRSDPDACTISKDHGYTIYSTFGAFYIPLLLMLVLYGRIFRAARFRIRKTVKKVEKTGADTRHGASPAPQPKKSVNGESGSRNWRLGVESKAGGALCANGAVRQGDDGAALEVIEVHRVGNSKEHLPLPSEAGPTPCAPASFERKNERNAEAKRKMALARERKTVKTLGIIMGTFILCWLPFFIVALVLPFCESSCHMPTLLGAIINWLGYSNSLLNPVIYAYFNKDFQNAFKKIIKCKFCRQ
The experiment in a line: Equilibrium receptor binding, recombinant human receptor.

For another series, the target named is muscarinic M2 receptor (Homo sapiens, UniProt P08172). The series is described as above. More on the design: expressed in transfected cells.
Chain of muscarinic M2 receptor (P08172 whole entry): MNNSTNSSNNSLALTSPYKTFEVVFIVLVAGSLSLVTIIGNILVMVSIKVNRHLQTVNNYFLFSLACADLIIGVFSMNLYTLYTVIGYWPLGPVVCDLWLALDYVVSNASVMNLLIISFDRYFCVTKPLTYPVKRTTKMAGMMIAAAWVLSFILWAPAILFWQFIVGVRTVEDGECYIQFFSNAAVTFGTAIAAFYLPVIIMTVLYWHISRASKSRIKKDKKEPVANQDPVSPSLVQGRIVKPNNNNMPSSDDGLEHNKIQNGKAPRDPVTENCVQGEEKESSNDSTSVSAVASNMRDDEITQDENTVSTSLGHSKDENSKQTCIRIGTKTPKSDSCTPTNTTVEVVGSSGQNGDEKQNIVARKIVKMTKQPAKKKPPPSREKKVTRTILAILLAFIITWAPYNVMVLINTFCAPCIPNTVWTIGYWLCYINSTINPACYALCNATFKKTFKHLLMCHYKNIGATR
Series [1] addresses T2, adrenergic alpha-2A receptor (Alpha2A) (Homo sapiens, UniProt P08913).
T2 construct: expressed in transfected cells
T2 sequence (P08913 1-465): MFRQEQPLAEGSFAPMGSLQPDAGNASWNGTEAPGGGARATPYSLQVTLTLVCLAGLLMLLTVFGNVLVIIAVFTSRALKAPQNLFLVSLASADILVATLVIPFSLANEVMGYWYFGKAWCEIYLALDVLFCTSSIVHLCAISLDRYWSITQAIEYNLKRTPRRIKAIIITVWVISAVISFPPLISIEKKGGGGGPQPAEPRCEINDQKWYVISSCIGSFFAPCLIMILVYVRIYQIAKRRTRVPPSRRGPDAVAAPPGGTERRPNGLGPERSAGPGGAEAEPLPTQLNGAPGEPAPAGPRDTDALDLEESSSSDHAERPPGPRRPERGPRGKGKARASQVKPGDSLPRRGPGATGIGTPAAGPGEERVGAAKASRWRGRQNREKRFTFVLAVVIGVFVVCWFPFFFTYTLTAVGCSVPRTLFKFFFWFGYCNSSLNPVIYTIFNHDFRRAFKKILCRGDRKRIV
The description is as above.

The target in series [2] is T3, adrenergic alpha-2C receptor (Alpha2C) (Homo sapiens, UniProt P18825).
T3 construct: expressed in transfected cells
T3 sequence (P18825 1-462): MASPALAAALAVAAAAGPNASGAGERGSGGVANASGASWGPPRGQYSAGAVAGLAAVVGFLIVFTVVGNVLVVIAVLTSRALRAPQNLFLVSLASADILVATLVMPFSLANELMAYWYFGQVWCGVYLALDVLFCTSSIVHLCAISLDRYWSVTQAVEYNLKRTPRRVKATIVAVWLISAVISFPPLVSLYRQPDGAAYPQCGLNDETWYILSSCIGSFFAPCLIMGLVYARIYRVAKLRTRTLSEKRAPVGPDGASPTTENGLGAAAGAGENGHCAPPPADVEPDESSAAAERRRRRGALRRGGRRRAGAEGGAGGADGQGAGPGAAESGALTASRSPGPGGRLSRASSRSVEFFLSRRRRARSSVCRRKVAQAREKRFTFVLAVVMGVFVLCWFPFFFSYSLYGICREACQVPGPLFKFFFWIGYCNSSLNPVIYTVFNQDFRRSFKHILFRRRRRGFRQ
The description is as above.

For a further series, the target named is T4, 5-HT2C receptor (Homo sapiens, UniProt P28335).
T4 construct: expressed in transfected cells
T4 sequence (P28335 33-458): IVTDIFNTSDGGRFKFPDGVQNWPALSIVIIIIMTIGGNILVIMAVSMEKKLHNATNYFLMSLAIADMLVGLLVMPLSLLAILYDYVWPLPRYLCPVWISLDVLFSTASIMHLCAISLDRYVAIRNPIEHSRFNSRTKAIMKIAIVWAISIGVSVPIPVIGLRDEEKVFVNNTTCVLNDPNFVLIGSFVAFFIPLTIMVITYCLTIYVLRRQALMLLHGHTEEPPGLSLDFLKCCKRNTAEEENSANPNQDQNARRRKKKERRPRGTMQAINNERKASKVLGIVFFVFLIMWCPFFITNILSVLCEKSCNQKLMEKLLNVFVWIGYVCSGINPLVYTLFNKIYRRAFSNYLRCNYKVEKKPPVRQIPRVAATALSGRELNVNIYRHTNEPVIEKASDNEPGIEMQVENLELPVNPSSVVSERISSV
Described as above.

The nature of series [3]: Stress stability at 50° C., purity profile. The format is physicochemical. As to the method:
In order to evaluate the stability of the formulations described above, prototype A, B, C, D were maintained under the 50° C. stress condition for 30 days.

The mark [4] stands for this setting: T0, samples stored at room temperature.
Setting [5] is: T15days, active ingredient without excipients.

Turning to `CNCCC=C1c2ccccc2CCc2ccccc21` [nortriptyline], the pKi (in general, the negative decadic logarithm of the Ki, by convention in mol/L) at 5-HT1A receptor was 7.00; on muscarinic M2 receptor it was 6.85.

In the case of `CN(C)CCC=C1c2ccccc2CCc2ccccc21` [amitriptyline, 3-(10,11-dihydro-5H-dibenzo [a,d]cycloheptene-5-ylidene)-N,N-dimethyl-1-propanamine], the pKi in series [1] was 6.60; in series [2], 7.85; at 5-HT1A receptor, 6.66; at 5-HT2C receptor, 7.55.

On to `CN(C)CCC=C1c2ccccc2C=Cc2ccccc21` [Cyclobenzaprine HCl (Dipharma)], for which, in series [3] (setting [4]), the “Impurity 1 (Dibenzosuberenone, RT = about 56′)” value was “Absent”; the “Impurity 2 (Carbinole, RT = about 6′)” value is given as “Absent”; the “Impurity 4 (Amitriptyline, RT = about 15′)” value was “Absent”; the “Total Impurities” value is on record as 0.005%. Also, in series [3] (setting [4]), the “Unknown 1 (RT = about 16′)” value is on record as 0.005%, the “Unknown 2 (RT = about 17.5′)” value is “Absent” and the “Unknown 3 (RT = about 7.5′)” value amounted to 0.028%. In addition, in series [3] (setting [5]), the “Impurity 1 (Dibenzosuberenone, RT = about 56′)” value was “Absent”; the “Impurity 2 (Carbinole, RT = about 6′)” value was “Absent”; the “Impurity 4 (Amitriptyline, RT = about 15′)” value is “Absent”; the “Total Impurities” value is recorded as 0.003%. Moreover, in series [3] (setting [5]), the “Unknown 1 (RT = about 16′)” value was “Absent”, the “Unknown 2 (RT = about 17.5′)” value is on record as 0.003% and the “Unknown 3 (RT = about 7.5′)” value is 0.008%.

As for `CN(C)CCC=C1c2ccccc2C=Cc2ccccc21` [Cyclobenzaprine HCl (Sifavitor)], in series [3] (setting [4]), the “Impurity 1 (Dibenzosuberenone, RT = about 56′)” value is on record as “Absent”; the “Impurity 2 (Carbinole, RT = about 6′)” value is recorded as “Absent”; the “Impurity 4 (Amitriptyline, RT = about 15′)” value was “Absent”; the “Total Impurities” value worked out at 0.020%. For the same compound, in series [3] (setting [4]), the “Unknown 1 (RT = about 16′)” value is 0.020%, the “Unknown 2 (RT = about 17.5′)” value is “Absent” and the “Unknown 3 (RT = about 7.5′)” value is “Absent”. In series [3] (setting [5]), the “Impurity 1 (Dibenzosuberenone, RT = about 56′)” value is “Absent”; the “Impurity 2 (Carbinole, RT = about 6′)” value was “Absent”; the “Impurity 4 (Amitriptyline, RT = about 15′)” value is “Absent”; the “Total Impurities” value is 0.019%. For the same compound, in series [3] (setting [5]), the “Unknown 1 (RT = about 16′)” value was “Absent”, the “Unknown 2 (RT = about 17.5′)” value is recorded as 0.019% and the “Unknown 3 (RT = about 7.5′)” value is “Absent”.
